The subject of this experiment is BDF1 mice, P388 leukemia ip, median survival T/C. In words: NCI In Vivo Anticancer Drug Screen. Data for tumor model P388 Leukemia (intraperitoneal) in B6D2F1 (BDF1) mice. As to conditions: endpoint: median survival time, higher = longer survival. The method in brief:
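Antitumour effect was judged in vivo: survival in drug-treated mice, normalised to that of vehicle-dosed controls, gives the reported T/C.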

[1] abbreviates: dose: 50.0 mg/kg/injection, schedule: Q01DX009 (ip), vehicle: saline with Tween-80.
Setting [2] is: dose: 100.0 mg/kg/injection, schedule: Q04DX003 (ip), vehicle: saline with Tween-80.
Setting [3] is: dose: 400.0 mg/kg/injection, schedule: Q04DX003 (ip), vehicle: saline with Tween-80.
[4] abbreviates: dose: 200.0 mg/kg/injection, schedule: Q04DX003 (ip), vehicle: saline with Tween-80.
Where [5] appears, read: dose: 50.0 mg/kg/injection, schedule: Q04DX003 (ip), vehicle: saline.
Where [6] appears, read: dose: 100.0 mg/kg/injection, schedule: Q04DX003 (ip), vehicle: saline.
Setting [7] is: dose: 200.0 mg/kg/injection, schedule: Q04DX003 (ip), vehicle: saline.
Setting [8] is: dose: 100.0 mg/kg/injection, schedule: Q01DX010 (ip), vehicle: saline.

Inconclusive results and toxic doses are left out.

In the case of `CCCC(O)Cc1c[nH]c(=O)[nH]c1=O` (stereo unspecified), the T/C (dose: 6.25 mg/kg/injection, schedule: Q01DX009 (ip), vehicle: saline with Tween-80) is 101 % of control; the T/C (dose: 12.5 mg/kg/injection, schedule: Q01DX009 (ip), vehicle: saline with Tween-80) is 92 % of control; the T/C (dose: 12.5 mg/kg/injection, schedule: Q04DX003 (ip), vehicle: saline with Tween-80) was 101 % of control; the T/C (dose: 25.0 mg/kg/injection, schedule: Q01DX009 (ip), vehicle: saline with Tween-80) is 106 % of control; the T/C (dose: 25.0 mg/kg/injection, schedule: Q04DX003 (ip), vehicle: saline with Tween-80) was 104 % of control; the T/C under setting [1] was 93 % of control. Also, under “dose: 50.0 mg/kg/injection, schedule: Q04DX003 (ip), vehicle: saline with Tween-80”, the T/C was 100 % of control.
For `Cc1nc2nc(N)nc(N)c2nc1Sc1ccc(Cl)cc1`, the T/C reads like this: under setting [2], 91 % of control; under setting [3], 88 % of control.
As for `CC(/C(=N/N(C)C)c1ccccc1)C(C)/C(=N\N(C)C)c1ccccc1` (stereo unspecified), the T/C is, setting by setting: (dose: 100.0 mg/kg/injection, schedule: Q04DX002 (ip), vehicle: saline with Tween-80) 97 % of control; (dose: 200.0 mg/kg/injection, schedule: Q04DX002 (ip), vehicle: saline with Tween-80) 110 % of control; (dose: 400.0 mg/kg/injection, schedule: Q04DX002 (ip), vehicle: saline with Tween-80) 112 % of control.
On to `CCOC(=O)C(=CN1CCCCCC1)C(=O)OCC`, for which the T/C under setting [2] was 109 % of control, the T/C under setting [4] is 109 % of control and the T/C under setting [3] is 113 % of control.
For `S=c1nc(-c2ccccc2)c(-c2ccccc2)n[nH]1`, the T/C runs as follows: (dose: 20.0 mg/kg/injection, schedule: Q01DX001 (ip), vehicle: other) 95 % of control; (dose: 40.0 mg/kg/injection, schedule: Q01DX001 (ip), vehicle: other) 86 % of control; (dose: 40.0 mg/kg/injection, schedule: Q04DX003 (ip), vehicle: saline with Tween-80) 104 % of control; (dose: 75.0 mg/kg/injection, schedule: Q01DX001 (ip), vehicle: other) 122 % of control; (dose: 75.0 mg/kg/injection, schedule: Q04DX003 (ip), vehicle: saline with Tween-80) 108 % of control; (dose: 150.0 mg/kg/injection, schedule: Q01DX001 (ip), vehicle: other) 90 % of control. The T/C (dose: 150.0 mg/kg/injection, schedule: Q04DX003 (ip), vehicle: saline with Tween-80) was 116 % of control.
For the molecule `C[S+](C)C`, the T/C reads like this: (dose: 12.0 mg/kg/injection, schedule: Q01DX001 (ip), vehicle: saline) 100 % of control; (dose: 12.5 mg/kg/injection, schedule: Q04DX003 (ip), vehicle: saline) 100 % of control; (dose: 25.0 mg/kg/injection, schedule: Q01DX001 (ip), vehicle: saline) 100 % of control; (dose: 25.0 mg/kg/injection, schedule: Q04DX003 (ip), vehicle: saline) 100 % of control; (dose: 50.0 mg/kg/injection, schedule: Q01DX001 (ip), vehicle: saline) 100 % of control; under setting [5], 100 % of control. Also, the T/C is 111 % of control under setting [6]; 100 % of control under setting [7]; 96 % of control (dose: 400.0 mg/kg/injection, schedule: Q04DX003 (ip), vehicle: saline).
Turning to `CC(=O)OCC(=O)[C@@]1(O)CC[C@H]2[C@@H]3CCC4=CC(=O)C=C[C@]4(C)[C@@]3(F)[C@@H](O)C[C@@]21C`, the T/C runs as follows: (dose: 12.5 mg/kg/injection, schedule: Q01DX009 (ip), vehicle: saline sonified) 104 % of control; (dose: 25.0 mg/kg/injection, schedule: Q01DX009 (ip), vehicle: saline sonified) 109 % of control; (dose: 50.0 mg/kg/injection, schedule: Q01DX009 (ip), vehicle: saline sonified) 100 % of control.
Turning to `O=S(=O)(c1ccccc1)N1CCOC1=S`, the T/C reads like this: under setting [2], 114 % of control; under setting [4], 95 % of control; under setting [3], 95 % of control.
With `COc1cccc(/C=C2\SC(=S)N(CCCN3CCOCC3)C2=O)c1OC`, the T/C reads like this: under setting [1], 91 % of control; (dose: 100.0 mg/kg/injection, schedule: Q01DX009 (ip), vehicle: saline with Tween-80) 88 % of control.
In the case of `O=Nc1ccc(O)c(=O)cc1`, the T/C is 109 % of control (dose: 1.0 mg/kg/injection, schedule: Q01DX009 (ip), vehicle: saline with Tween-80); 104 % of control (dose: 1.0 mg/kg/injection, schedule: Q04DX003 (ip), vehicle: saline); 109 % of control (dose: 2.0 mg/kg/injection, schedule: Q01DX009 (ip), vehicle: saline with Tween-80); 104 % of control (dose: 2.0 mg/kg/injection, schedule: Q04DX003 (ip), vehicle: saline); 90 % of control (dose: 4.0 mg/kg/injection, schedule: Q01DX009 (ip), vehicle: saline with Tween-80); 116 % of control (dose: 4.0 mg/kg/injection, schedule: Q04DX003 (ip), vehicle: saline).
For `C=C1C(=O)OC2C1C(OC(=O)/C(C)=C/C)CC(O)(CCl)C1C(OC(C)=O)C=C(C)C21O` (stereo unspecified), the T/C is, setting by setting: (dose: 5.0 mg/kg/injection, schedule: Q01DX010 (ip), vehicle: carboxymethylcellulose (CMC)) 100 % of control; (dose: 10.0 mg/kg/injection, schedule: Q01DX010 (ip), vehicle: carboxymethylcellulose (CMC)) 100 % of control; (dose: 20.0 mg/kg/injection, schedule: Q01DX010 (ip), vehicle: carboxymethylcellulose (CMC)) 100 % of control; (dose: 25.0 mg/kg/injection, schedule: Q01DX010 (ip), vehicle: saline) 116 % of control; (dose: 50.0 mg/kg/injection, schedule: Q01DX010 (ip), vehicle: saline) 100 % of control; under setting [8], 155 % of control.
As to `OCC(O)C(O)C(O)C(O)C(O)CO` (stereo unspecified), the T/C is, setting by setting: (dose: 100.0 mg/kg/injection, schedule: Q01DX010 (ip), vehicle: carboxymethylcellulose (CMC)) 100 % of control; under setting [8], 95 % of control; (dose: 400.0 mg/kg/injection, schedule: Q01DX010 (ip), vehicle: carboxymethylcellulose (CMC)) 100 % of control; (dose: 400.0 mg/kg/injection, schedule: Q01DX010 (ip), vehicle: saline) 100 % of control.
Consider `CC(=O)N1CCc2cc(N)ccc21`, for which the T/C runs as follows: under setting [5], 95 % of control; under setting [6], 95 % of control; under setting [7], 91 % of control.
As to `O=[N+]([O-])c1cc2c3ccccc3ccc2c2ccccc12`, the T/C by setting is: (dose: 100.0 mg/kg/injection, schedule: Q01DX009 (ip), vehicle: Klucel (hydroxypropylcellulose) (HPC)) 104 % of control; (dose: 100.0 mg/kg/injection, schedule: Q04DX003 (ip), vehicle: Klucel (hydroxypropylcellulose) (HPC)) 100 % of control; (dose: 200.0 mg/kg/injection, schedule: Q01DX009 (ip), vehicle: Klucel (hydroxypropylcellulose) (HPC)) 100 % of control; (dose: 200.0 mg/kg/injection, schedule: Q04DX003 (ip), vehicle: Klucel (hydroxypropylcellulose) (HPC)) 100 % of control; (dose: 400.0 mg/kg/injection, schedule: Q01DX009 (ip), vehicle: Klucel (hydroxypropylcellulose) (HPC)) 104 % of control; (dose: 400.0 mg/kg/injection, schedule: Q04DX003 (ip), vehicle: Klucel (hydroxypropylcellulose) (HPC)) 100 % of control.
For `CC(=O)Oc1cc2c[n+](C)c3c4cc(OC(C)=O)c(OC(C)=O)cc4ccc3c2cc1OC(C)=O`, the T/C is 95 % of control (dose: 20.0 mg/kg/injection, schedule: Q01DX009 (ip), vehicle: saline); 104 % of control (dose: 40.0 mg/kg/injection, schedule: Q01DX009 (ip), vehicle: saline); 109 % of control (dose: 80.0 mg/kg/injection, schedule: Q01DX009 (ip), vehicle: saline); 118 % of control (dose: 120.0 mg/kg/injection, schedule: Q01DX009 (ip), vehicle: saline).
Take `O=C1Cc2cc(=C(c3ccccc3)c3ccccc3)ccc2=C1c1ccccc1`: the T/C is 93 % of control (dose: 50.0 mg/kg/injection, schedule: Q01DX005 (ip), vehicle: saline with Tween-80); 96 % of control (dose: 100.0 mg/kg/injection, schedule: Q01DX005 (ip), vehicle: saline with Tween-80); 91 % of control (dose: 200.0 mg/kg/injection, schedule: Q01DX005 (ip), vehicle: saline with Tween-80).

These data come from PubChem BioAssay AID328 (DTP/NCI, 2004).
